Measurements: patent US20230124862A1, “BISMUTH THIOL COMPOUNDS AND COMPOSITIONS AND METHODS OF TREATING MICROBIAL CO-INFECTIONS” (Microbion Corporation, priority 2020, published 2023)
In brackets after ≈: the same amount, converted by molar mass. Like-named read-outs stand apart in the source and are kept apart here.

Key:
[1] = test system: Pseudomonas aeruginosa strain PA01; assay: Bacterial killing curves with and without CF patient sputum; format: cell-based; conditions: for bactericidal activity: 0.1 μg/mL
[2] = test system: S. aureus ATCC 29213; conditions: cited from earlier work; for Expected MIC: goal (acceptable range): control strain ATCC 29213
[3] = test system: Achromobacter spp. biofilm; assay: Activity against biofilms; format: cell-based; conditions: tested up to 250 μg/mL
Source text: A dose response is also apparently associated with both compounds (FIG. 21).

[4] = test system: M. avium; assay: MIC testing of CF isolates; format: cell-based; conditions: Mycobacterium avium
[5] = test system: P. aeruginosa; conditions: control strain ATCC 27853; cited from earlier work
[6] = in vivo; design: species or system rat; conditions: for half-life / concentration at 24 hours / Kp: in vivo
Source text: . Without being bound by any particular theory, it is believed BisEDT's low solubility provides slow dissolution and long exposure on lung surface fluids with limited systemic exposure via diffusion through lung epithelium. The lung appears to act as a depot for slow systemic exposure with about 10× lower systemic levels than seen in the lung. The terminal phase of the IV data appears to show slow elimination after initial tissue distribution (FIG. 36).
. The NOAEL was established through clinical observation during and after treatment, gross necropsy, lung lavage analysis, clinical chemistry, and hematology results. […].

[7] = test system: Escherichia coli; conditions: CLSI established QC range, cited from earlier work
[8] = test system: P. aeruginosa; conditions: P. aeruginosa isolate 103; CLSI QC range in parenthesis; cited from earlier work
[9] = test system: MucilAir fully differentiated human airway epithelium
[10] = test system: P. aeruginosa; conditions: P. aeruginosa isolate 103; CLSI QC range in parenthesis; cited from earlier work; remark: listed apart in the source
[11] = test system: Pseudomonas aeruginosa; conditions: P. aeruginosa ATCC 27853; CLSI established QC range; cited from earlier work
[12] = format: in vivo, F344 rats; conditions: rat, inhalation
Method: Inhalation Exposure: The initial exposure of BisEDT (Bismuth-1,2-ethanedithiol) was formulated as a […] at 100 mg/mL in suspension in 0.5% Tween 80, 10 mM sodium phosphate, pH 7.4, in NaCl (adjusted to approximately 300 mOsm). Aerosols were generated with a commercial compressed air jet nebulizer, Pad LC Plus, operated with an inlet pressure of 20 psi. The aerosols were transitioned into a rodent nose-only inhalation exposure system. The exposure system was operated with an inlet air flow of −5.2 L/min and an exhaust air flow of −5 L/min.

[13] = test system: Klebsiella pneumoniae; assay: Broth microdilution MIC (Example 12); format: cell-based
[14] = test system: Escherichia coli; assay: Broth microdilution MIC (Example 12); format: cell-based
[15] = test system: Pseudomonas aeruginosa; assay: Broth microdilution MIC (Example 12); format: cell-based
[16] = test system: Burkholderia cepacia complex; assay: Checkerboard FIC/FICI assay; format: cell-based, Burkholderia spp.; conditions: during FIC testing
[17] = rat, 24 hours after single inhalation dose
[18] = rat, 4 days (96 hrs) after single dose

SMILES: CC(S)C(C)S.[Bi] (stereo not shown) [BisBDT, bismuth-2,3-butanedithiol]
- bactericidal activity [1]: not bactericidal
- more surviving in cultures with sputum ([1]; 4 μg/mL, 3-6 hours): 0.5-0.8 log CFU/mL
- killing without sputum ([1]; 4 μg/mL, over the 6 hour assay): about 1 log
- time to sterilization below the limit of detection ([1]; 20 μg/mL, with and without sputum): ≤ 5 h
- Expected MIC: goal (acceptable range) [2]: 0.25 (0.12-0.5) mcg/mL
- reduction in viable biofilm cells [3]: 5 log
- MIC ([4]; strain AMT G193-13): > 16 µg/mL
- MIC ([4]; strain MAC101): 1 µg/mL

SMILES: C1C[S][Bi]([S]CC[S][Bi]2[S]CC[S]2)[S]1 [BisEDT, Bismuth-1,2-ethanedithiol]
- Expected MIC: goal (acceptable range) [5]: 1 to 2 µg/mL
- half-life ([6]; 100 μg/kg, rat, after IV dosing, read-out: half-life of lung levels (converted)): ~24 h
- half-life ([6]; inhaled or intranasal, 100 μg/kg, rat, after inhalation dosing, read-out: half-life in lung tissue (converted)): ~96 h
- concentration at 24 hours ([6]; average rat, correlated from lung tissue level, read-out: concentration in lung epithelial lining fluid): 150 to 175 µg/mL
- half-life ([6]; rat, longer-term single-dose and repeat-dose studies, read-out: half-life in lung tissue (converted)): 96 to 168 h
- lung surface fluid concentrations higher than total lung tissue concentrations ([6]; rat): approximately 30 fold
- tolerability ([6]; rat, 100 μg/kg inhalation and IV and 250 μg/kg oral): tolerated
- equivalent concentration in lung fluid [6, 17]: 123 µg/mL
- lung tissue concentration [6, 17]: 4,093 ng/g
- equivalent concentration in lung fluid [6, 18]: 78 µg/mL
- lung tissue concentration [6, 18]: 2,600 ng/g
- lung levels after IV dosing vs inhalation group ([6]; rat, IV): < 5%
- Kp ([6]; rat, rat, repeat dose TK, read-out: lung tissue exposure (AUC) greater than blood exposure): 26
- Kp ([6]; rat, rat, read-out: lung fluid exposure (AUC) greater than systemic exposure): > 700
- concentration at 24 hours ([6]; rat, rats, doses near the NOAEL, 24 hours after dosing, read-out: lung tissue level (total wet lung tissue)): ~5000 ng/g
- QC range of MIC ([7]; E. coli ATCC 25922): (0.5-4)^1 μg/mL
- CLSI QC range of MIC [8]: (0.5-4)^2 μg/mL
- bactericidal activity [1]: not bactericidal
- LDH release ([9]; BisEDT in solution 0.001-30 μM, 1, 8, 24, 48 h): not altered
- LDH release (cytotoxicity) ([9]; solid, 1 μg/cm^2, 8, 24 and 48 h): time- and dose-dependent cytotoxicity
- LDH release ([9]; solid, 1 μg/cm^2, 1 hour): No significant effect
- LDH release ([9]; solid, 0.033 and 0.33 μg/cm^2, all time points): No significant effect
- QC Range 24 hr ([2]; S. aureus ATCC 29213, established QC range, 24 hr): 0.12-1
- Expected MIC: goal (acceptable range) [2]: 0.25 to 0.5 µg/mL
- CLSI QC range of MIC [10]: (0.5-4) μg/mL
- QC range of MIC [11]: (0.5-4) μg/mL
- Mean BisEDT Conc, whole blood ([12]; dose 47 μg/kg, 8 hr): 114 ng/mL
- Mean BisEDT Conc, whole blood ([12]; dose 47 μg/kg, 12 hr): 98 ng/mL
- Mean BisEDT Conc, whole blood ([12]; dose 47 μg/kg, 24 hr): 282 ng/mL
- Mean BisEDT Conc, whole blood ([12]; dose 47 μg/kg, 30 hr): 373 ng/mL
- Mean BisEDT Conc, whole blood ([12]; dose 124 μg/kg, 8 hr): 247 ng/mL
- Mean BisEDT Conc, whole blood ([12]; dose 124 μg/kg, 12 hr): 187 ng/mL
- Mean BisEDT Conc, whole blood ([12]; dose 124 μg/kg, 24 hr): 571 ng/mL
- Mean BisEDT Conc, whole blood ([12]; dose 124 μg/kg, 30 hr): 668 ng/mL
- Mean BisEDT Conc, whole blood ([12]; dose 400 μg/kg, 8 hr): 1701 ng/mL
- Mean BisEDT Conc, whole blood ([12]; dose 400 μg/kg, 12 hr): 1252 ng/mL
- Mean BisEDT Conc, whole blood ([12]; dose 400 μg/kg, 24 hr): 2700 ng/mL
- Mean BisEDT Conc, whole blood ([12]; dose 400 μg/kg, 30 hr): 2738 ng/mL
- Mean BisEDT Conc, whole blood ([12]; dose 3000 μg/kg, 1 hr): 485 ng/mL
- Mean BisEDT Conc, whole blood ([12]; dose 3000 μg/kg, 2 hr): 2504 ng/mL
- Mean BisEDT Conc, whole blood ([12]; dose 3000 μg/kg, 8 hr): 6570 ng/mL
- Mean BisEDT Conc, whole blood ([12]; dose 3000 μg/kg, 24 hr): 20525 ng/mL

SMILES: C[C@@H](O)[C@H]1C(=O)N2C(C(=O)O)=C(S[C@@H]3CN[C@H](C(=O)N(C)C)C3)[C@H](C)[C@H]12 [MEM]
- QC range of MIC ([7]; E. coli ATCC 25922): (0.008-0.06) μg/mL
- QC range of MIC ([7]; E. coli ATCC 35218): (0.008-0.06) μg/mL
- MIC ([13]; K. pneumoniae ATCC BAA-1705, ATCC QC organism (Table 102)): 8 µg/mL (≈ 20.9 µM)
- MIC ([13]; K. pneumoniae ATCC BAA-1705, ESBL/KPC): 8 µg/mL (≈ 20.9 µM)
- MIC ([13]; K. pneumoniae CDC 112, KPC): >8 µg/mL
- MIC ([13]; K. pneumoniae CDC 113, ESBL/KPC): >8 µg/mL
- MIC ([13]; K. pneumoniae CDC 115, ESBL/KPC): >8 µg/mL
- MIC ([13]; K. pneumoniae CDC 120, ESBL/KPC): >8 µg/mL
- MIC ([13]; K. pneumoniae CDC 126, ESBL/KPC): 4 µg/mL (≈ 10.4 µM)
- MIC ([13]; K. pneumoniae CDC 129, ESBL/KPC): 8 µg/mL (≈ 20.9 µM)
- MIC ([13]; K. pneumoniae CDC 135, ESBL/VIM): 1 µg/mL (≈ 2.61 µM)
- MIC ([13]; K. pneumoniae CDC 138, ESBL/NDM): >8 µg/mL
- MIC ([13]; K. pneumoniae CDC 158, ESBL/NDM/OXA): >8 µg/mL
- MIC ([13]; K. pneumoniae MMX 9029, ESBL): 0.015 µg/mL (≈ 0.0391 µM)
- CLSI QC range of MIC [8]: (0.12-1) μg/mL
- MIC ([14]; E. coli ATCC 25922, ATCC QC organism (Table 102)): ≤0.008 µg/mL
- MIC ([14]; E. coli ATCC 35218, ATCC QC organism (Table 102)): ≤0.008 µg/mL
- MIC ([14]; E. coli ATCC 35218, ESBL): ≤0.008 µg/mL
- MIC ([14]; E. coli ATCC BAA-2471, NDM): >8 µg/mL
- MIC ([14]; E. coli CDC 114, ESBL/KPC): 2 µg/mL (≈ 5.22 µM)
- MIC ([14]; E. coli CDC 118, ESBL/NDM): 0.06 µg/mL (≈ 0.156 µM)
- MIC ([14]; E. coli CDC 435, NDM): >8 µg/mL
- MIC ([14]; E. coli CDC 451, KPC): 1 µg/mL (≈ 2.61 µM)
- MIC ([14]; E. coli CDC 503, ESBL/NDM): 8 µg/mL (≈ 20.9 µM)
- MIC ([14]; E. coli MMX 5745, KPC): 2 µg/mL (≈ 5.22 µM)
- MIC ([14]; E. coli MMX 5755, ESBL): 0.015 µg/mL (≈ 0.0391 µM)
- MIC ([14]; E. coli MMX 5756, ESBL): ≤0.008 µg/mL
- MIC ([14]; E. coli MMX 5758, ESBL): ≤0.008 µg/mL
- CLSI QC range of MIC [10]: (0.12-1) μg/mL
- MIC ([15]; P. aeruginosa ATCC 27853, ATCC QC organism (Table 102)): 0.25 µg/mL (≈ 0.652 µM)
- MIC ([15]; P. aeruginosa CDC 230, VIM/OXA): >8 µg/mL
- MIC ([15]; P. aeruginosa CDC 231, KPC/OXA): >8 µg/mL
- MIC ([15]; P. aeruginosa CDC 241, IMP/OXA): >8 µg/mL
- MIC ([15]; P. aeruginosa CDC 246, NDM/OXA): >8 µg/mL
- MIC ([15]; P. aeruginosa CDC 250, NDM/OXA): >8 µg/mL
- MIC ([15]; P. aeruginosa CDC 356, KPC): >8 µg/mL
- MIC ([15]; P. aeruginosa CDC 439, IMP): >8 µg/mL
- MIC ([15]; P. aeruginosa CDC 444, VIM): >8 µg/mL
- MIC ([15]; P. aeruginosa CDC 457, VIM): >8 µg/mL
- MIC ([15]; P. aeruginosa CDC 516, KPC/AmpC): >8 µg/mL
- MIC ([15]; P. aeruginosa CDC 518, KPC/AmpC): >8 µg/mL
- QC range of MIC [11]: (0.12-1) μg/mL
- MIC ([16]; B. cenocepacia isolate 0548): 4 µg/mL
- MIC ([16]; B. cenocepacia isolate 0813): 9 µg/mL
- MIC ([16]; B. cepacia isolate 0546): 4 µg/mL
- MIC ([16]; B. cepacia isolate 1793): 4 µg/mL
- MIC ([16]; B. multivorans isolate 1795): 4 µg/mL
